Activity data for 15 compounds are collected here from ChEMBL document CHEMBL1137578, “Small molecules block the polymerization of Z alpha1-antitrypsin and increase the clearance of intracellular aggregates” (2007).

Test [1] is filed under the species Mus musculus. The test can be described thus: (§1) Reduction in intracellular accumulation of alpha-1 antitrypsin Z mutant in mouse Hepa1a cells at 100 uM after 16 hrs. The format is functional.
Test [2] can be described thus: as §1. The arrangement: scale not given: the % may be the effect or the level left. The format is functional.
In test [3] the target is T1, Alpha-1-antichymotrypsin (Homo sapiens) (UniProt P01011).
T1 sequence (whole entry): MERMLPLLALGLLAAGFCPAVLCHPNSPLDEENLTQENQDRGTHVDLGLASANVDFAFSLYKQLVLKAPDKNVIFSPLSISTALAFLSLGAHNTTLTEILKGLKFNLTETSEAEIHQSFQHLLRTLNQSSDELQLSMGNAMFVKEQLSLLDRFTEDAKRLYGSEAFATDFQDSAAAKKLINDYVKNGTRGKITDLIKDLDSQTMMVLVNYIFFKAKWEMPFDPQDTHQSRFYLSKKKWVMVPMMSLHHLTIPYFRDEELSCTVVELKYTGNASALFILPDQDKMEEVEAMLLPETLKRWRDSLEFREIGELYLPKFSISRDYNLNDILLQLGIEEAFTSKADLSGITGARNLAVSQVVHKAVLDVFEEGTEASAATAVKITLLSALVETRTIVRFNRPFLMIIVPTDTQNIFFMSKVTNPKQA
The test can be described thus: Inhibition of polymerization of alpha-1 antichymotrypsin at 200 uM.

The species named for test [4] is Homo sapiens. The test can be described thus: Inhibition of polymerization of alpha-1-antitrypsin Z mutant at 20 uM.
Test [5] is filed under the species Homo sapiens. The test can be described thus: Inhibition of polymerization of alpha-1-antitrypsin Z mutant at 50 uM.
The species entered for test [6] is Homo sapiens. Briefly: Inhibition of polymerization of alpha-1-antitrypsin Z mutant at 5 uM.
For test [7], the species on record is Homo sapiens. The test can be described thus: Inhibition of polymerization of alpha-1-antitrypsin Z mutant at 10 uM.
The species entered for test [8] is Homo sapiens. The test can be described thus: Inhibition of polymerization of alpha-1-antitrypsin Z mutant.

Structures are written as SMILES. Calls of active or inactive are those of the source. No cut-off for these calls is given here.

As for `COc1c(C)cc(NS(=O)(=O)c2ccc(SC)cc2)cc1C`, the result in test [1] was inactive.

Compound `Cc1cc(S(=O)(=O)Nc2cc(C)c(O)c(C)c2)c(C)s1` gave an Activity in test [2] of 70%. Moreover, the result in test [3] was inactive. For the same compound, the outcome in test [4] and in test [5] was Active.

For the compound `Cc1ccc(S(=O)(=O)Nc2cc(C)c(O)c(Sc3nnc(C)[nH]3)c2)cc1`, the outcome in test [1] was inactive. For the same compound, the outcome in test [6] and in test [7] was Active. As for `Cc1ccc(S(=O)(=O)Nc2cc(C)c(O)c(Sc3nnc[nH]3)c2)cc1`, the result in test [6] and in test [7] was Active. Consider `Oc1ccc(-c2n[nH]cc2-c2ccn(-c3ccccc3)n2)c(O)c1O`, for which the outcome in test [7] was Active. As to `Cc1cc(NS(=O)(=O)c2ccccc2)cc(C)c1O`, the outcome in test [5] was Active. For `O=C1c2ccc(O)cc2OC(c2ccc(O)c(O)c2O)C1O` (configuration not stated), the outcome in test [8] was Active. Same read-out and setting: next, `NS(=O)(=O)c1ccc(Nc2nc(-c3ccc(O)cc3O)cs2)cc1`: “Active”.

Turning to `Cc1cc(NS(=O)(=O)c2ccccc2)cc(Cl)c1O`, the result in test [7] was Active. Regarding `Oc1ccc(-c2n[nH]cc2-c2cnn(-c3ccccc3)c2)c(O)c1O`, the result in test [7] was Active. On to `CSc1ccc(C(Nc2ccccn2)c2oc(CO)cc(=O)c2O)cc1` (configuration not stated), for which the result in test [8] was Active. With `Cc1cc(NS(=O)(=O)c2ccccc2)cc(Br)c1O`, the outcome in test [6] and in test [7] was Active. Consider `Cc1cc(NS(=O)(=O)c2ccc([N+](=O)[O-])cc2)cc(C)c1O`, for which, in test [7], the outcome was Active. Still for that read-out and setting: then `Cc1cc(NS(=O)(=O)c2cccc([N+](=O)[O-])c2)cc(C)c1O`, with “Active”. On to `COc1ccccc1Nc1ccc2c(O)cc(S(=O)(=O)O)cc2c1`, for which, in test [8], the result was Active.
